Reference: patent publication US20080171660A1, “Method of Controlling Weeds” (priority 2005, published 2008)

Key:
[1] = system: Curly dock (RUMCR); assay: Field test, weed control, post-emergence, 15 DAT (Example 1); type: in vivo; conditions: use rate I.7 12.5 g/ha, tribenuron-methyl 10 g/ha
Source text: (§1) The phenyluracils I and/or the other active ingredients according to the present invention were formulated in a suitable way, either separately or in mixture, e.g. as emulsifiable concentrates (EC), soluble concentrates (SL), suspo-emulsions (SE), suspension concentrates (SC) or water-dispersible granules (WG). The formulation(s) were suspended or emulsified in water as a distribution medium immediately prior to spraying. Afterwards, the aqueous mixture was evenly sprayed on the test plots by means of finely distributing nozzles.
(§2) The test plots were of uniform size (typically between 14 and 37 square meters, each) and the distribution of treated and untreated plots was organized according to a randomised bloc design. Crops were sown in rows at a season which was typical for the region and the crop according to usual farm practice. Weeds were not sown but germinated according to the natural infestation.
(§3) For pre-plant and pre-plant burn-down treatments, the plots were treated before the crop was planted, typically 7 to 28 days prior to planting. For pre-emergence treatments, the plots were treated at planting (plus or minus two days) but before emergence. For post-emergence or in-crop treatments, the plots were treated after the emergence of the weed or crop, typically 20 to 50 days after planting. […]

[2] = system: Wild mustard (SINAR); assay: as above; type: in vivo; conditions: use rate I.7 12.5 g/ha, tribenuron-methyl 10 g/ha
Source text: as §1, §2, §3

SMILES: COC(=O)c1ccccc1S(=O)(=O)NC(=O)N(C)c1nc(C)nc(OC)n1 [tribenuron-methyl]
- Weed control (% control) Curly dock (RUMCR) Found [1]: 40 % control
- Weed control (% control) Wild mustard (SINAR) Found [2]: 100 % control
